Reference: the Kinase Knowledgebase extract (Sharma et al. 2016)

Molecular target: EGFR (UniProt P00533)
Sequence (P00533 whole entry, looked up): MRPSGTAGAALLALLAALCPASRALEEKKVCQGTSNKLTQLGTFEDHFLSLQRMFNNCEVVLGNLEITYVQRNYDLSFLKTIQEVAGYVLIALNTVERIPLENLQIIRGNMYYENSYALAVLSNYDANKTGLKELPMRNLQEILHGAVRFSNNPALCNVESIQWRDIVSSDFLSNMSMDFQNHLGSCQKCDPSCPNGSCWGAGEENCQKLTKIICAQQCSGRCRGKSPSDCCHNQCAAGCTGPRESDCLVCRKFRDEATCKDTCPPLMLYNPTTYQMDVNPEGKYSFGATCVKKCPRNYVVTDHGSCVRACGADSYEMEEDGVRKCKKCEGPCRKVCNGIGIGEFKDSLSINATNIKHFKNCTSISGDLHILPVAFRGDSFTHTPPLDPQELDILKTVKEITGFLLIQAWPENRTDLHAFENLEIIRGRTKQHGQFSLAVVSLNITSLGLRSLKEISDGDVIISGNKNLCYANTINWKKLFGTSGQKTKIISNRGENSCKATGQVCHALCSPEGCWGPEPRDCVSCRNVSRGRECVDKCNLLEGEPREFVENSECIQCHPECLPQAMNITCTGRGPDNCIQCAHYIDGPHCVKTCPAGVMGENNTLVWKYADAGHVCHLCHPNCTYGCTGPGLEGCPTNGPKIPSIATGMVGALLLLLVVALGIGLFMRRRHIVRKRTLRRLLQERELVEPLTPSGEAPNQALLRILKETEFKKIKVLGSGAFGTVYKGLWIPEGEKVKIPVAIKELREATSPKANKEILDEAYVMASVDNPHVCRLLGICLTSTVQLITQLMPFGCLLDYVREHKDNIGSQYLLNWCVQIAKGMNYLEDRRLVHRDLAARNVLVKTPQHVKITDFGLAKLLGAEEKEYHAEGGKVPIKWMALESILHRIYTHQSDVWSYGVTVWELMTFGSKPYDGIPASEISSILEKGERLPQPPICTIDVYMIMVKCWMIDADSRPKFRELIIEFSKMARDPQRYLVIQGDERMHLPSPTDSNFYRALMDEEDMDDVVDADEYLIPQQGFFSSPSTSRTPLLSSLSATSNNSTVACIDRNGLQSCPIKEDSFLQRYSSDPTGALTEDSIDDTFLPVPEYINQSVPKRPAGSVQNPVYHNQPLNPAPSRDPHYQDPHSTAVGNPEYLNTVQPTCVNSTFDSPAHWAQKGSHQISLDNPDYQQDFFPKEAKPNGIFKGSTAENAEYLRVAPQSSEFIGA

Row | Compound | IC50
1 | Cc1ccc2ncnc(Nc3ccccc3)c2c1 | > 50 µM
2 | Cc1ccc2ncnc(Nc3ccccc3O)c2c1 | > 50 µM
3 | COc1cc2c(Nc3cccc(Cl)c3)ncnc2c(OC)c1OC | > 50 µM
4 | Cc1ccc2ncnc(Nc3cccc(Cl)c3)c2c1 | 0.037 µM
5 | Cc1ccc2ncnc(Nc3cccc(C(N)=O)c3)c2c1 | > 50 µM
6 | COc1cc2ncnc(Nc3cccc(I)c3)c2cc1OC | 0.0017 µM
7 | Cc1ccc(Nc2ncnc3ccc(C)cc23)cc1 | > 50 µM
8 | Cc1cccc2c(Nc3cccc(Cl)c3)ncnc12 | > 50 µM
9 | COc1cc2nc(N3CCN(C)CC3)nc(Nc3cccc(Cl)c3)c2cc1OC | 3.4 µM
10 | Cc1ccc2ncnc(Nc3ccc4c(c3)OCO4)c2c1 | 21 µM
11 | COc1cc2ncnc(Nc3ccccc3)c2cc1OC | > 50 µM
12 | Cc1ccc2ncnc(Nc3ccc(Br)cc3)c2c1 | 14 µM
13 | Cc1ccc2ncnc(Nc3ccccc3C)c2c1 | > 50 µM
14 | Cc1ccc2ncnc(Nc3ccc(C)c(C)c3)c2c1 | > 45 µM
15 | COc1cc2nc(Cl)nc(Nc3ccc(C)cc3)c2cc1OC | 4.9 µM
16 | COc1cc2nc(Nc3ccc(C)cc3)nc(Nc3ccc(C)cc3)c2cc1OC | 3.4 µM
17 | Clc1cccc(Nc2ncnc3ccccc23)c1 | 0.205 µM
18 | Cc1ccc2ncnc(Nc3ccc(C#N)cc3)c2c1 | > 50 µM
19 | COc1cccc(Nc2ncnc3cc(OC)c(OC)cc23)c1 | 1 µM
20 | Cc1ccc2ncnc(Nc3cccc(C(=O)O)c3)c2c1 | > 50 µM
21 | Clc1ccccc1Nc1ncnc2ccccc12 | > 50 µM
22 | Cc1ccc2ncnc(Nc3cccc(Br)c3)c2c1 | 0.33 µM
23 | Cc1ccc2ncnc(Nc3cccc(C(F)(F)F)c3)c2c1 | 0.86 µM
24 | COc1cc2ncnc(Nc3cc(Cl)cc(Cl)c3)c2cc1OC | 0.024 µM
25 | Cc1ccc2ncnc(Nc3ccc(O)cc3)c2c1 | > 50 µM
26 | COc1cc2nc(Cl)nc(Nc3cccc(Cl)c3)c2cc1OC | 20 µM
27 | Cc1ccc2ncnc(Nc3ccccc3Cl)c2c1 | > 50 µM
28 | COc1ccc(Nc2ncnc3ccc(C)cc23)cc1 | 10 µM
